Results as given in patent publication US10453555B2, “Parameterizing cell-to-cell regulatory heterogeneities via stochastic transcriptional profiles” (University of Virginia Patent Foundation, priority 2015, dated 2019).

Columns and labels:
p110δ = test: IC87114 inhibitor validation: pAkt immunoblotting after lysophosphatidic acid stimulation; type: cell-based, human; conditions: MCF10A-5E cells, 20 μM IC87114 pre-treatment for one hour, 10 μM lysophosphatidic acid for five minutes
Experimental: For p110δ inhibitor experiments, 20 μM IC87114 (Calbiochem) was added to the assay medium and replaced every four days. IC87114 inhibitor validation was performed as follows. MCF10A-5E cells were plated in 6-well dishes and cultured in serum-free medium overnight. Wells were pre-treated with or without 20 μM IC87114 (Calbiochem) for one hour and then stimulated with 10 μM lysophosphatidic acid (Sigma-Aldrich) for five minutes. Cells were lysed as previously described (Wang et al. (2011) Proc Natl Acad U S A 108(40):E803-812), and lysates were probed for pAkt levels by immunoblotting.
Immunoblotting was performed as follows. 30-50 μg of clarified cell extract was separated on an 8% or 10% SDS-PAGE gel and transferred to PVDF (Millipore). Membranes were blocked in 0.5×Odyssey blocking buffer (Licor) for one hour and incubated overnight at 4° C. in 0.5×Odyssey blocking buffer with 0.1% Tween containing one of the following primary antibodies: anti-p110δ (1:500; Santa Cruz Biotechnology) or anti-pAkt Ser473 (1:1000; Cell Signaling). Additionally, chicken anti-tubulin (1:20000; Abeam) was added to each primary solution as a loading control. […]

MCF10A-5E cells = test: Proliferation of acini in 3D culture (phospho-Rb whole-mount immunofluorescence); type: cell-based, human; conditions: shGFP control cells + 20 μM IC87114, replaced every four days
Experimental: We next asked whether PIK3CD was specifically important for normal acinar morphogenesis. To eliminate the very-rare PIK3CD^hi subpopulation, p110δ was perturbed by two independent methods: RNA interference and the p110δ-specific small-molecule inhibitor, IC87114 (Knight et al. (2006) Cell 125(4):733-747) (FIG. 18A and FIG. 21). […] Primers were annealed at 95° C. in annealing buffer (10 mM Tris-HCl, 100 mM NaCl, 1 mM EDTA) for 5 min on a thermocycler and cooled slowly to room temperature by unplugging the instrument. Annealed primers were phosphorylated in vitro with T4 polynucleotide kinase (New England Biolabs) and then cloned into pLKO.1 puro (Moffat et al. (2006) Cell 124(6):1283-1298) that had been digested with EcoRI and AgeI. Lentiviruses were packaged and transduced into MCF10A-5E cells and selecting with 2 μg/ml puromycin as previously described (Wang et al. (2011) Proc Natl Acad Sci U S A 108(40):E803-812) to produce shGFP and shPIK3CD cell lines. MCF10A (shGFP, and shPIK3CD) cell lines were cultured in 3D as previously described (Debnath et al. (2003) Methods 30(3):256-268). […]
Whole-mount immunofluorescence of shGFP and shPIK3CD cultures was performed as previously described (Wang et al. (2011) Proc Natl Acad U S A 108(40):E803-812). […] Samples were scored for pRb-positive acini as before (Wang et al. (2011) Proc Natl Acad Sci U S A 108(40):E803-812).

`Cc1ccccc1-n1c(Cn2cnc3c(N)ncnc32)nc2cccc(C)c2c1=O` [IC87114] was tested, and the “Akt phosphorylation (pAkt Ser473 levels) stimulated by p110δ” value (p110δ) was “inhibits Akt phosphorylation” and the “proliferating (pRb-positive) acini” value (MCF10A-5E cells) was “sustained proliferation”.
